Test results as given in publication PMC12652222 (International Journal of Molecular Sciences, 2025).
Where “and” joins values, the source holds several entries; their conditions need not be identical. Identical values can stand only once.

Key:
ABTS radical scavenging = assay type: biochemical; settings: mean ± SE, n = 3; for ABTS (%): inhibition % at 20 µg/mL
Description: (§1) The antioxidant activity was assessed using the iron reducing power (IRP) and the total antioxidant capacity (TAC). Ascorbic acid served as a standard to calculate the inhibition percentages (%) and the median inhibitory concentration (IC50) of each tested compound against the following radicals: nitric oxide (NO), hydroxyl (OH), hydrogen peroxide (H2O2), ABTS [79], and DPPH [80].

[1] = Total antioxidant capacity (TAC); assay type: biochemical; settings: mean ± SE, n = 3
Description: as §1

proteinase enzyme = experiment: Proteinase inhibition (anti-arthritic); assay type: biochemical; parameters: Proteinase Inhibition (%): concentration or dose not given beside the values; settings: mean ± SE, n = 3
Description: (§2) Anti-arthritic activity was evaluated using diclofenac sodium as the reference drug. The inhibition percentage and IC50 were determined for protein denaturation and the proteinase enzyme.

[2] = target: acetylcholinesterase (AChE) (Homo sapiens, UniProt P22303); experiment: biochemical; settings: mean ± SE, n = 3; for IC50: read-out: AChE IC50 (µg/mL) (converted)
Description: The inhibition percentage and IC50 of the acetylcholinesterase (AChE) enzyme were measured using the Ellman method.

protein denaturation = experiment: Protein denaturation inhibition (anti-arthritic); assay type: biochemical; parameters: concentration or dose not given beside the values; settings: mean ± SE, n = 3
Description: as §2

[3] = Hydrogen peroxide (H2O2) scavenging; assay type: biochemical; settings: mean ± SE, n = 3; for H2O2 (%): inhibition % at 20 µg/mL
Description: as §1

[4] = Hydroxyl (OH) radical scavenging; assay type: biochemical; settings: mean ± SE, n = 3; for OH (%): inhibition % at 20 µg/mL
Description: as §1

[5] = Iron-reducing power (IRP); assay type: biochemical; settings: mean ± SE, n = 3
Description: as §1

α-glucosidase = experiment: α-Glucosidase inhibition; assay type: biochemical; settings: for inhibition of α-glucosidase: at 20 µg/mL
Description: (§3) The IC50 and inhibition percentages (Inhib. %) of the enzymes α-amylase and α-glucosidase were calculated.

α-amylase = target: T1, α-amylase (Homo sapiens, UniProt P04746); experiment: α-Amylase inhibition; assay type: biochemical; settings: for inhibition at 20 µg/mL: read-out: α-Amylase Inhibition (%)
T1 sequence (P04746 16-511): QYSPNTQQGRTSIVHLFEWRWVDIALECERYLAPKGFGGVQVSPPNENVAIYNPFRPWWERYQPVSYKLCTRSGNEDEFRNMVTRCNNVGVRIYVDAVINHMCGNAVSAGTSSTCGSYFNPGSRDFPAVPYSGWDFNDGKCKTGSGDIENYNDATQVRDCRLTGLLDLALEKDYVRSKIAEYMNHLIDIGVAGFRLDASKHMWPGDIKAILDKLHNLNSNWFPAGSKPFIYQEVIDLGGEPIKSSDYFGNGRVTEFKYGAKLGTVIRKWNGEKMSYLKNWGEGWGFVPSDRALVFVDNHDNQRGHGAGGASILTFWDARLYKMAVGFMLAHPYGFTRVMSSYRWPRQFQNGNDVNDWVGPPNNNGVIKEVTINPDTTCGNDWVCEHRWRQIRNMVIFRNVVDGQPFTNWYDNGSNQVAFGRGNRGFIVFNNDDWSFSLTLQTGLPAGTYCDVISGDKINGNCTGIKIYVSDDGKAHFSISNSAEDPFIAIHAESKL
Description: as §3

[6] = Nitric oxide (NO) radical scavenging; assay type: biochemical; settings: mean ± SE, n = 3; for NO (%): inhibition % at 20 µg/mL
Description: as §1

DPPH radical scavenging = assay type: biochemical; settings: mean ± SE, n = 3; for DPPH (%): inhibition % at 20 µg/mL
Description: as §1

Sequence of acetylcholinesterase (AChE) (P22303 32-614, species assumed): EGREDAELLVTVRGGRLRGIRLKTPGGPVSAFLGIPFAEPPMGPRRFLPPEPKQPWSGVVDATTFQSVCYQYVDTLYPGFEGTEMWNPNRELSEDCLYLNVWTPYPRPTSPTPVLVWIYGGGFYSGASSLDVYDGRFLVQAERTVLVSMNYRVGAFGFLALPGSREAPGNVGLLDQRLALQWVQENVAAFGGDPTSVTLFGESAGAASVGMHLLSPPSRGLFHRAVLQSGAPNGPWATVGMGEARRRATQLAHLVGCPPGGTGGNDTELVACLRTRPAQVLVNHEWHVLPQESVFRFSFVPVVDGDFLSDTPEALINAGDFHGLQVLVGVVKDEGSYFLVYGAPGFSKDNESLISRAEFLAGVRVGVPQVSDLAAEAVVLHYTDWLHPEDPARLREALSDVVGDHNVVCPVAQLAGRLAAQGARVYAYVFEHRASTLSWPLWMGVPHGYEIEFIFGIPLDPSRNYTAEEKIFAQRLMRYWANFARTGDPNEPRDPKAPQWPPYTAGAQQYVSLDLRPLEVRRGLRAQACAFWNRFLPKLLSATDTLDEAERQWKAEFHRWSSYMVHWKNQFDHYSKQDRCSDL

Row | SMILES | ABTS radical scavenging IC50 (ABTS radical scavenging) [µg/mL] | TAC (mg Gallic Acid/g) [1] | Proteinase IC50 (proteinase enzyme) [µg/mL] | Proteinase Inhibition (%) (proteinase enzyme) | inhibition at 20 µg/mL [2] [%] | IC50 [2] [µM] | Protein Denaturation Inhibition (%) (protein denaturation) | H2O2 scavenging IC50 [3] [µg/mL] | OH radical scavenging IC50 [4] [µg/mL] | IRP [5] | α-Glucosidase IC50 (α-glucosidase) [µg/mL] | inhibition of α-glucosidase (α-glucosidase) [%] | IC50 (α-amylase) [µM] | inhibition at 20 µg/mL (α-amylase) [%] | NO radical scavenging IC50 [6] [µg/mL] | DPPH radical scavenging IC50 (DPPH radical scavenging) [µg/mL] | ABTS (%) (ABTS radical scavenging) | H2O2 (%) [3] [%] | OH (%) [4] [%] | NO (%) [6] [%] | also measured
1 | O=c1/c(=C\[C@@H](O)[C@@H](O)[C@H](O)[C@H](O)CO)sc2nc3sc4c(c3c(=O)n12)CCCC4 [8b, (E)-2-((2R,3R,4R,5R)-2,3,4,5,6-pentahydroxyhexylidene)-6,7,8,9-tetrahydro-5H-benzo-[4,5]thieno [2,3-d]thiazolo [3,2-a]pyrimidine-3,5(2H)-dione] | 4.78 ± 0.05 | 68.01 mg Gallic Acid/g and 68.01 ± 0.78 mg Gallic Acid/g | 65.93 ± 2.02 | 7.63 ± 0.19 | 5.19 ± 0.16 | 126 | 11.80 ± 0.19 | 10.28 ± 0.12 | 9.24 ± 0.05 | 60.86 µg/mL and 60.86 ± 0.78 µg/mL | 3.85 ± 0.05 | 54.78 ± 0.74 | 15.4 | 61.5 ± 0.74 | 6.88 ± 0.16 | 6.01 ± 0.12 |  |  |  |  | 
2 | O=c1/c(=C\[C@H](O)[C@@H](O)[C@@H](O)[C@H](O)CO)sc2nc3sc4c(c3c(=O)n12)CCCC4 [8c, (E)-2-((2S,3R,4S,5R)-2,3,4,5,6-pentahydroxyhexylidene)-6,7,8,9-tetrahydro-5H-benzo [4,5]-thieno [2,3-d]thiazolo [3,2-a]-pyrimidine-3,5(2H)-dione] | 20.68 ± 0.24 | 15.90 ± 0.20 mg Gallic Acid/g | 75.16 ± 2.30 | 6.18 ± 0.17 | 5.93 ± 0.19 | 110 | 10.35 ± 0.17 | 89.75 ± 2.32 | 80.74 ± 2.84 | 8.75 ± 0.20 µg/mL | 41.00 ± 1.33 |  |  | 11.9 ± 0.19 | 60.02 ± 1.12 | 31.07 ± 0.34 | 15.65 ± 0.20 | 6.58 ± 0.20 | 5.87 ± 0.17 | 6.75 ± 0.20 | DPPH (%) (DPPH radical scavenging): 12.50 ± 0.20%
3 | O=c1/c(=C\[C@H](O)[C@@H](O)[C@H](O)CO)sc2nc3sc4c(c3c(=O)n12)CCCC4 [8d, (E)-2-((2S,3R,4R)-2,3,4,5-tetrahydroxypentylidene)-6,7,8,9-tetrahydro-5H-benzo [4,5]thieno [2,3-d]thiazolo [3,2-a]-pyrimidine-3,5(2H)-dione] | 19.31 ± 0.23 | 17.02 ± 0.21 mg Gallic Acid/g | 65.40 ± 1.90 | 7.11 ± 0.18 | 5.61 ± 0.18 | 125 | 11.28 ± 0.18 | 77.03 ± 1.82 | 69.29 ± 2.28 | 9.87 ± 0.21 µg/mL | 33.99 ± 0.98 |  |  | 13 ± 0.2 | 51.52 ± 0.85 | 28.53 ± 0.30 | 16.77 ± 0.21 | 7.66 ± 0.21 | 6.84 ± 0.19 | 7.87 ± 0.21 | DPPH (%) (DPPH radical scavenging): 13.62 ± 0.21%
4 | O=c1/c(=C\[C@@H](O)[C@H](O)[C@H](O)CO)sc2nc3sc4c(c3c(=O)n12)CCCC4 [8e, (E)-2-((2R,3S,4R)-2,3,4,5-tetrahydroxypentylidene)-6,7,8,9-tetrahydro-5H-benzo [4,5]thieno [2,3-d]thiazolo [3,2-a]pyrimidine-3,5(2H)-dione] | 4.73 ± 0.05 | 68.69 mg Gallic Acid/g and 68.69 ± 0.79 mg Gallic Acid/g | 9.08 ± 0.11 | 50.90 ± 0.65 | 5.24 ± 0.17 | 134 | 54.07 ± 0.65 | 10.17 ± 0.12 | 9.14 ± 0.05 | 61.54 µg/mL and 61.54 ± 0.79 µg/mL | 3.81 ± 0.05 | 55.43 ± 0.75 | 16.3 | 62.2 ± 0.75 | 6.80 ± 0.16 | 5.95 ± 0.12 |  |  |  |  | 
